Assay: Phase transition temperature (differential thermal analysis)
Type: physicochemical
Conditions: single phospholipid
Method: Phase transition temperature was determined by differential thermal analysis.

Row | phase transition temperature (found value) of phospholipid [°C] | Substance
1 | 44.0 | steroylpalmitoylphosphitdylcholine [SPPC]
2 | 47.4 | palmitoylstearoylphosphitadylcholine [PSPC]
